Experimental data taken from patent US10617677B2, “Nuclear transport modulators and uses thereof” (Biogen MA Inc., priority 2012, dated 2020).
Entries after “also recorded” stand apart in the source; their conditions may differ.

Assays:
MOG-induced EAE = assay: MOG-induced experimental autoimmune encephalomyelitis (EAE) murine model; assay type: in vivo, mice; settings: 7.5 mg/kg p.o. starting on study day 11, Monday, Wednesday and Friday
Experimental: The EAE Model is an accepted model for the study of human CNS demyelinating diseases such as multiple sclerosis. The effects of Compound 1 were investigated in MOG-induced in an EAE murine model in female C57B1/6J mice. […] Compound 1 at 7.5 mg/kg was administered orally starting from day 11 (disease onset) on Monday, Wednesday and Friday for 3 consecutive weeks. The disease was induced by the single intradermal injection of MOG emulsified in Complete Freund's Adjuvant (CFA) on study day 0, followed by intraperitoneal supplemental immunostimulation with pertussis toxin (PT) carried out on study day 0, and again 48 hours later on study day 2.

skin wounds = assay: Longitudinal full thickness skin incision wound model in C57BL mice; assay type: in vivo
Excerpt: The effects of Compound 1 on skin wound healing were studied in a mouse longitudinal full thickness skin incision wound model. Upon arrival, animals were identified by ear tags, weighed and left to acclimate for several days before initiation of the experiment. On the day of wounding, mice were weighed and divided into 6 experimental groups with 6 animals per group, in accordance to weight differences stratified randomization. Prior to the surgical procedure, mice were anesthetized with isoflurane and the back of the animals was trimmed. Full thickness longitudinal incisions of 20 mm were performed using a standard scalpel blade on the backs of the animals (parallel to the backbone). […] At this stage, the widest area of the wound was measured to establish a baseline wound width. […] At the end of the experiment, 8 days post wounding, mice were sacrificed, wound widths were measured and biopsies of the wound area were collected and subjected to analysis. […]
As a part of a daily morphological assessment, photo-documentation was performed using a digital camera FinePix S700. […] When evaluated on the same day as treatment groups, control group wounds appeared larger in size and were covered with thick cracked scabs that exposed a non-healed wound area (observed as reddish and pink areas) both at the edges and in the middle of the wounds. […]

[1] = system: collagen-induced arthritis; assay: Collagen-induced arthritis (CIA) in Lewis rats; assay type: in vivo; settings: 4 mg/kg PO QoD from onset to day 28
Experimental: Forty (40) female Lewis rats (BK), aged 6 to 8 weeks with a pre-treatment body weight range of 180 to 200 g were divided randomly into four (4) groups (Groups A-D) of ten (10) rats each. The rats in Groups B to D were immunized intradermally with bovine CII in IFA at three sites near the base of the tail and over the back with 500 μL of the emulsion on day 0 (200 μL, 200 μL, 100 μL for each site). On day 7, the rats in Groups B-D were given booster injections with the same amount of the emulsion intradermally near the former injection sites. […] Rats were weighed daily and a drug holiday was given to an animal when a weight loss of greater than 13%. CIA development was evaluated via macroscopic scoring and measurements of paw swelling. […] Foot volume was measured by plethysmometry on the same day of the arthritic measurement throughout the study period. The cubage of each hind paw and swelling rate were measured and using the following equation: Swelling Rate=(CN−C0)/C0×100%. […] The clinical scores were summed for each animal, and the total average of all animals in each group was expressed as the mean arthritic score. […] Prepared sections of hind paws were subjected to hematoxylin and eosin (H&E) staining.

Z-138 xenograft tumors = assay: Z-138 lymphoma xenograft in SCID mice; assay type: in vivo
Experimental: Z-138 (ATCC # CRL-3001) mantle cell lymphoma cells were obtained from ATCC. These cells were grown in IMEM medium supplemented with 10% horse serum, 1% penicillin and streptomycin, and 2 mM L-glutamine. […] Twenty-four (24) female CB-17 SCID mice (Charles River Labs strain code 236), aged 5 to 6 weeks were used. The SCID mice were inoculated in the left flank with Z-138 cells in a volume of 0.2 mL, equivalent to 4×10^7 cells per mouse. […] Mice were allocated to […] prior to the initiation of treatment based on tumor volume such that mean tumor volume in each group was within the range of 77 to 92 mm^3. […] Animals were fed with Labdiet® 5001 rodent chow and sterile water ad libitum. […] Animals with weight loss of more than 20% of their starting weight were euthanized. Mice with weight loss of more than 15% of their starting weight were not treated again until weight loss recovered to less than 5% of their starting weight. Any animals with a tumor volume of more than 1500 mm^3 were euthanized. Dosing solutions were prepared fresh on each day of dosing. […] This was prepared by dissolving the lyophilized powder in sterile water.

| Compound | disease (clinical) score and severity (MOG-induced EAE) | wound healing, morphological assessment (skin wounds; 4 or 7.5 mg/kg PO every other day, or 1 or 2.5 μM topical daily, Day 5 post-wounding) | incidence of tampering with wounds compared to vehicle treated mice (skin wounds; Compound 1 in PVP/Pluronic F-68 or Compound 1 in water) | Clinical Scores, Joint Swelling and histological examination [1] | histopathology of hind paws (H&E) [1] | weight loss (Z-138 xenograft tumors; 15 mg/kg PO MWF) | tumor growth relative to vehicle (area under the growth curves, ANOVA) (Z-138 xenograft tumors; Compound 2 15 or 7.5 mg/kg PO MWF, cyclophosphamide 80 mg/kg IP) |
| --- | --- | --- | --- | --- | --- | --- | --- |
| CC(C)(C)C(=O)NNC(=O)/C=C\n1cnc(-c2cc(C(F)(F)F)cc(C(F)(F)F)c2)n1 [Compound 1, (Z)-3-(3-(3,5-bis(trifluoromethyl)phenyl)-1H-1,2,4-triazol-1-yl)-N′-pivaloylacrylohydrazide] | significantly decreased disease score and severity; also recorded: decrease in disease score and severity | positive effect; also recorded: better wound healing | reduced the incidence of tampering with wounds; also recorded: prevented tampering with wounds | – | – | – | – |
| O=C(/C=C\n1cnc(-c2cc(C(F)(F)F)cc(C(F)(F)F)c2)n1)NNC(=O)CN1CCOCC1 [Compound 2, (Z)-3-(3-(3,5-bis(trifluoromethyl)phenyl)-1H-1,2,4-triazol-1-yl)-N′-(2-morpholinoacetyl)acrylohydrazide] | – | – | – | therapeutic efficacy | relatively intact cartilage was found on the joint surface and pannus formation was minimal | Some weight loss was observed | antitumor effect at both 7.5 mg/kg and 15 mg/kg doses in a dose dependent manner |
